Assay [1] relates to MOLM-13 cells. Description: Cell viability assay (CellTiter-Glo) in MOLM-13 cells, alone or with gilteritinib. The assay is classed as cell-based. Particulars: Homo sapiens, MOLM-13 cells, three days, CellTiter-Glo.
Assay [2] has as its system MV4;11 cells. Nature of the assay: Cell viability assay (CellTiter-Glo) in MV4;11 cells, alone or with gilteritinib. The assay is classed as cell-based. The following applies: Homo sapiens, MV4;11 cells, three days, CellTiter-Glo, read-out: MV4.
Where [3] appears, read: MOLM-13, 72 h, compound alone (without gilteritinib), read-out: MOLM-13 IC50.
Where [4] appears, read: MOLM-13, 72 h, with gilteritinib 20 nM, read-out: MOLM-13 IC50 gilteritinib.
Setting [5] is: MV4-11, 72 h, compound alone (without gilteritinib), 11 IC50.
The mark [6] stands for this setting: MV4-11, 72 h, with gilteritinib 10 nM, 11 IC50 gilteritinib.
[7] abbreviates: 72 h, compound alone (without gilteritinib), read-out: MOLM-13 IC50.
Setting [8] is: 72 h, with gilteritinib 20 nM, read-out: MOLM-13 IC50 gilteritinib.
Where [9] appears, read: 72 h, compound alone (without gilteritinib), 11 IC50.
[10] abbreviates: 72 h, with gilteritinib 10 nM, 11 IC50 gilteritinib.

Where two headings read alike, the source gives them in different places. Where only a bound is given, the exact number is not on record here.

In the case of `O=C1CCC(N2Cc3c(NC4CCCC(CCCCn5cc(-c6cnc7ccccc7n6)cn5)C4)cccc3C2=O)C(=O)N1` (stereo not shown) [GS-142, 3-(1-Oxo-4-((3-(4-(4-(quinoxalin-2-yl)-1H-pyrazol-1-yl)butyl)cyclohexyl)amino)isoindolin-2-yl)piperidine-2,6-dione], the IC50 in assay [1] (setting [3]), in assay [1] (setting [4]), in assay [2] (setting [5]) and in assay [2] (setting [6]) was above 1 µM in each case.

For `C[C@@H]1CC(n2cc(-c3cnc4ccccc4n3)cn2)C[C@H](C)N1C(=O)CCCCNc1ccc2c(c1)C(=O)N(C1CCC(=O)NC1=O)C2=O` (stereo partly drawn) [GS-143, 5-((5-((2R,6S)-2,6-dimethyl-4-(4-(quinoxalin-2-yl)-1H-pyrazol-1-yl)piperidin-1-yl)-5-oxopentyl)amino)-2-(2,6-dioxopiperidin-3-yl)isoindoline-1,3-dione], the IC50 in assay [1] (setting [3]), in assay [1] (setting [4]), in assay [2] (setting [5]) and in assay [2] (setting [6]) was above 1 µM in each case.

Take `O=C1CCC(N2C(=O)c3ccc(NCC45CC(C(=O)N6CCC(n7cc(-c8cnc9ccccc9n8)cn7)CC6)(C4)C5)cc3C2=O)C(=O)N1` (stereo not shown) [GS-144, 2-(2,6-Dioxopiperidin-3-yl)-5-(((3-(4-(4-(quinoxalin-2-yl)-1H-pyrazol-1-yl)piperidine-1-carbonyl)bicyclo[1.1.1]pentan-1-yl)methyl)amino)isoindoline-1,3-dione]: the IC50 in assay [1] (setting [3]) is above 1 µM; in assay [1] (setting [4]), 0.1 to 1 µM; in assay [2] (setting [5]), 0.1 to 1 µM; in assay [2] (setting [6]), 0.01 to 0.1 µM.

On to `O=C1CCC(N2C(=O)c3ccc(NCCCC(F)(F)C(=O)N4CCC(n5cc(-c6cnc7ccccc7n6)cn5)CC4)cc3C2=O)C(=O)N1` (stereo not shown) [GS-145, 5-((4,4-Difluoro-5-oxo-5-(4-(4-(quinoxalin-2-yl)-1H-pyrazol-1-yl)piperidin-1-yl)pentyl)amino)-2-(2,6-dioxopiperidin-3-yl)isoindoline-1,3-dione], for which the IC50 in assay [1] (setting [3]) was 0.1 to 1 µM; in assay [1] (setting [4]), below 0.01 µM; in assay [2] (setting [5]), 0.1 to 1 µM; in assay [2] (setting [6]) it was 0.01 to 0.1 µM.

On to `Cc1nn(CCCCCCNc2ccc3c(c2)C(=O)N(C2CCC(=O)NC2=O)C3=O)c(C)c1-c1cnccn1` (stereo not shown) [GS-146, 5-((6-(3,5-Dimethyl-4-(pyrazin-2-yl)-1H-pyrazol-1-yl)hexyl)amino)-2-(2,6-dioxopiperidin-3-yl)isoindoline-1,3-dione], for which the IC50 in assay [1] (setting [3]) is 0.1 to 1 µM; in assay [1] (setting [4]), 0.01 to 0.1 µM; in assay [2] (setting [5]) it was above 1 µM; in assay [2] (setting [6]), 0.01 to 0.1 µM.

As to `O=C1CCC(N2C(=O)c3ccc(NCCCCC(=O)N4CCC(c5ccccc5)CC4)cc3C2=O)C(=O)N1` (stereo not shown) [GS-147, 2-(2,6-Dioxopiperidin-3-yl)-5-((5-oxo-5-(4-phenylpiperidin-1-yl)pentyl)amino)isoindoline-1,3-dione], the IC50 in assay [1] (setting [7]) is above 1 µM; in assay [1] (setting [8]), 0.01 to 0.1 µM; in assay [2] (setting [9]) it was above 1 µM; in assay [2] (setting [10]) it was 0.1 to 1 µM.

With `O=C1CCC(N2C(=O)c3ccc(NCCCC(=O)N4CCC(c5ccccc5)CC4)cc3C2=O)C(=O)N1` (stereo not shown) [GS-148, 2-(2,6-Dioxopiperidin-3-yl)-5-((4-oxo-4-(4-phenylpiperidin-1-yl)butyl)amino)isoindoline-1,3-dione], the IC50 is 0.1 to 1 µM in assay [1] (setting [7]), 0.01 to 0.1 µM in assay [1] (setting [8]), above 1 µM in assay [2] (setting [9]) and 0.1 to 1 µM in assay [2] (setting [10]).

Turning to `O=C1CCC(N2C(=O)c3ccc(NCCNC(=O)N4CCC(n5cc(-c6cnc7ccccc7n6)cn5)CC4)cc3C2=O)C(=O)N1` (stereo not shown) [GS-149, N-(2-((2-(2,6-dioxopiperidin-3-yl)-1,3-dioxoisoindolin-5-yl)amino)ethyl)-4-(4-(quinoxalin-2-yl)-1H-pyrazol-1-yl)piperidine-1-carboxamide], the IC50 in assay [1] (setting [3]) was above 1 µM; in assay [1] (setting [4]), 0.1 to 1 µM; in assay [2] (setting [5]), above 1 µM; in assay [2] (setting [6]), 0.1 to 1 µM.

Take `Cc1nn(CCCCCCNc2ccc3c(c2)C(=O)N(C2CCC(=O)NC2=O)C3=O)c(C)c1-c1ncccn1` (stereo not shown) [GS-150, 5-((6-(3,5-Dimethyl-4-(pyrimidin-2-yl)-1H-pyrazol-1-yl)hexyl)amino)-2-(2,6-dioxopiperidin-3-yl)isoindoline-1,3-dione]: the IC50 in assay [1] (setting [3]) was 0.1 to 1 µM; in assay [1] (setting [4]), below 0.01 µM; in assay [2] (setting [5]), 0.1 to 1 µM; in assay [2] (setting [6]) it was 0.01 to 0.1 µM.

As for `Cc1nn(CCCCCCNc2ccc3c(c2)C(=O)N(C2CCC(=O)NC2=O)C3=O)c(C)c1-c1ncc2ccccc2n1` (stereo not shown) [GS-151, 5-((6-(3,5-Dimethyl-4-(quinazolin-2-yl)-1H-pyrazol-1-yl)hexyl)amino)-2-(2,6-dioxopiperidin-3-yl)isoindoline-1,3-dione], the IC50 in assay [1] (setting [3]) was 0.01 to 0.1 µM; in assay [1] (setting [4]) it was below 0.01 µM; in assay [2] (setting [5]) it was 0.01 to 0.1 µM; in assay [2] (setting [6]), below 0.01 µM.

Turning to `O=C1CCC(N2C(=O)c3ccc(NCCc4cccc(N5CCC(n6cc(-c7cnc8ccccc8n7)cn6)CC5)c4)cc3C2=O)C(=O)N1` (stereo not shown) [GS-152, 2-(2,6-Dioxopiperidin-3-yl)-5-((3-(4-(4-(quinoxalin-2-yl)-1H-pyrazol-1-yl)piperidin-1-yl)phenethyl)amino)isoindoline-1,3-dione], the IC50 in assay [1] (setting [3]) is 0.1 to 1 µM; in assay [1] (setting [4]), 0.01 to 0.1 µM; in assay [2] (setting [5]) it was 0.1 to 1 µM; in assay [2] (setting [6]), 0.01 to 0.1 µM.

As for `O=C1CCC(N2C(=O)c3ccc(NCCCCC(=O)N4CCC(n5cc(-c6cnc7ccccc7n6)cn5)CC45CC5)cc3C2=O)C(=O)N1` (stereo not shown) [GS-153, 2-(2,6-Dioxopiperidin-3-yl)-5-((5-oxo-5-(7-(4-(quinoxalin-2-yl)-1H-pyrazol-1-yl)-4-azaspiro[2.5]octan-4-yl)pentyl)amino)isoindoline-1,3-dione], the IC50 in assay [1] (setting [3]) is above 1 µM; in assay [1] (setting [4]) it was 0.01 to 0.1 µM; in assay [2] (setting [5]), 0.1 to 1 µM; in assay [2] (setting [6]) it was 0.1 to 1 µM.

As to `O=C1CCC(N2Cc3c(NC4CCCC(CCCC(=O)N5CCC(n6cc(-c7cnc8ccccc8n7)cn6)CC5)C4)cccc3C2=O)C(=O)N1` (stereo not shown) [GS-154, 3-(1-Oxo-4-((3-(4-oxo-4-(4-(4-(quinoxalin-2-yl)-1H-pyrazol-1-yl)piperidin-1-yl)butyl)cyclohexyl)amino)isoindolin-2-yl)piperidine-2,6-dione], the IC50 in assay [1] (setting [3]), in assay [1] (setting [4]), in assay [2] (setting [5]) and in assay [2] (setting [6]) was above 1 µM in each case.

Turning to `O=C1CCC(N2C(=O)c3ccc(NCC4CCC(Cn5cc(-c6cnc7ccccc7n6)cn5)CC4)cc3C2=O)C(=O)N1` (stereo not shown) [GS-155, 2-(2,6-Dioxopiperidin-3-yl)-5-(((4-((4-(quinoxalin-2-yl)-1H-pyrazol-1-yl)methyl)cyclohexyl)methyl)amino)isoindoline-1,3-dione], the IC50 in assay [1] (setting [3]) was above 1 µM; in assay [1] (setting [4]), 0.1 to 1 µM; in assay [2] (setting [5]) it was 0.1 to 1 µM; in assay [2] (setting [6]), above 1 µM.

As for `Cc1nn(C2CC(CCCNc3ccc4c(c3)C(=O)N(C3CCC(=O)NC3=O)C4=O)C2)c(C)c1-c1cnc2cccc(F)c2n1` (stereo not shown) [GS-156, 2-(2,6-Dioxopiperidin-3-yl)-5-((3-(3-(4-(8-fluoroquinoxalin-2-yl)-3,5-dimethyl-1H-pyrazol-1-yl)cyclobutyl)propyl)amino)isoindoline-1,3-dione], the IC50 in assay [1] (setting [3]) is above 1 µM; in assay [1] (setting [4]) it was below 0.01 µM; in assay [2] (setting [5]) it was above 1 µM; in assay [2] (setting [6]), 0.1 to 1 µM.

`O=C1CCC(N2Cc3c(NC4CCCC(CCCn5cc(-c6cnc7ccccc7n6)cn5)C4)cccc3C2=O)C(=O)N1` (stereo not shown) [GS-157]: the IC50 in assay [1] (setting [3]), in assay [1] (setting [4]), in assay [2] (setting [5]) and in assay [2] (setting [6]) was above 1 µM throughout.

The values above are taken from US20240050428A1 (Cullgen (Shanghai), Inc., priority 2020, published 2024).
